pKd: −log10 of the molar value.
What was measured:
[1] = target: tau fibrils (phosphorylated tau-441 (2N4R)) (Homo sapiens, UniProt P10636); experiment: Binding studies with tau fibrils (fluorescence, no separation); settings: 0.85 μM tau fibrils, 2 hours; Ex 360 nm, Em 535 nm
Procedure: Lyophilized tau-441 (2N4R) was dissolved in buffer containing 40 mM HEPES, 5 mM EGTA, 3 mM MgCl2, pH 7.5. Tau was phosphorylated with GSK-3b in the presence of 2 mM ATP at 30° C. for 40 hours. Tau was used at 30-75 μM concentration, and GSK-3b was used at 0.02-0.08 U/pmol of tau. SDS PAGE gel was run to confirm the phosphorylation of tau (FIG. 8).
To make fibrils, the phosphorylated tau was reacted with arachidonic acid (ARA). The p-tau was diluted in 10 mM HEPES, 1 mM EDTA, 5 mM DTT and 150 mM NaCl at pH-7.6 to final concentration of 32 μM and ARA at 37 times molar excess of tau was added. The mixture was incubated for 2 days at 37° C. for 2 days. Fresh DTT was supplemented daily. The oligomers formed were used as seeds for fibril formation. 8 μM of tau seeds were used to form fibrils with 30 μM p-tau in 10 mM HEPES, 1 mM EDTA, 5 mM DTT and 150 mM NaCl at pH-7.6. ARA was used at 37 times molar excess over p-tau monomer and incubated at 37° C. for 2 days. Fresh DTT was added every day.
Different dilutions of p-FTAA molecule were added and mixed with 0.85 μM of tau fibrils and incubated for 2 hours. The mixture was assayed as is without separation of bound and unbound fibrils. Excitation at 360 nm and emission at 535 nm was used for detection of p-FTAA binding to tau fibrils.

[2] = target: α-Synuclein fibrils (Homo sapiens, UniProt P37840); experiment: Binding studies with α-Synuclein fibrils (fluorescence of unbound fraction); settings: 5 μM α-Synuclein fibrils, 2 hours incubation; read-out: dissociation constant, Kd
Procedure: Different dilutions of Conjugate A liposomes or p-FTAA were added and mixed with 5 μM of α-Synuclein fibrils and incubated for 2 hours. The mixture was centrifuged at 21000 g for 5 mins. The supernatant was removed and assayed for fluorescence of p-FTAA that was unbound to the fibrils. Excitation of 405 nm and emission of 574 nm emission was used. A standard curve from known concentrations of liposomes or pFTAA was made. The bound fraction was calculated as the difference between the total pFTAA or pFTAA-liposomes that was incubated and the unbound fraction. […] A dissociation constant of 3 nM was determined for the p-FTAA molecule (FIG. 7B).

tau fibrils (phosphorylated tau-441 (2N4R)), sequence (P10636 1-441 isoform P10636-8): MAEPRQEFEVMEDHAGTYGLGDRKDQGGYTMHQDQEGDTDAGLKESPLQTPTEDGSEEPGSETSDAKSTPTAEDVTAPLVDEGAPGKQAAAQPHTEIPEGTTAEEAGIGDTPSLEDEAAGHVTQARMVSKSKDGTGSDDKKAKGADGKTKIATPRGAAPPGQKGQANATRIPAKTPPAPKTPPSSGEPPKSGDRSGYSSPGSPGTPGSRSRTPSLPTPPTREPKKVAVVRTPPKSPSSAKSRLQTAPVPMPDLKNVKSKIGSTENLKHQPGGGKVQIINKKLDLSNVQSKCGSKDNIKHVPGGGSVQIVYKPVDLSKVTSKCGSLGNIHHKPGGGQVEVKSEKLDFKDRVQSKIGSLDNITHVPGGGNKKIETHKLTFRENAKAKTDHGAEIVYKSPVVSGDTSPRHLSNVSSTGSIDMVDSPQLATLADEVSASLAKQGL

fluorescence with tau fibrils in comparison to p-FTAA only [1]: increase in fluorescence
pKd [2]: 8.52
SMILES: O=C(O)Cc1cc(-c2ccc(C(=O)O)s2)sc1-c1ccc(-c2sc(-c3ccc(C(=O)O)s3)cc2CC(=O)O)s1 [p-FTAA, pentameric formyl thiophene acetic acid]

— patent US20200261605A1, “FUNCTIONALIZED LIPOSOMES FOR IMAGING MISFOLDED PROTEINS” (ALZECA BIOSCIENCES, LLC, priority 2019, published 2020)
